Where “and” joins values, the source holds several entries; their conditions need not be identical. Identical values can stand only once. Marks after values point to notes of the source that are not given here. Values belong to the compound of their own block, whether it stands above or below them.
Experiments:
DLD-1 cells [1] = test: MTT metabolic activity assay; type: cell-based, human; conditions: 48 h post-treatment, 5-Fluorouracil 16µM
Procedure: MTT assay was used to assess the proliferation rate of HCT-116 and DLD-1 cells. In this assay the ability of metabolically active cells to convert tetrazolium salt into a blue formazan product is measured. The absorption of the dissolved formazan was quantified at 540 nm by an ELISA reader (Bio-Rad iMark Microplate Reader).
Cells were plated at 2^∗104cells/ml in 96-well plates and incubated overnight. […] Metabolic activity of the cells was studied using the MTT assay that measures the ability of metabolically active cells to convert tetrazolium salt into a blue formazan product, the absorbance of which is recorded at 540 nm by an ELISA reader (Bio-Rad iMark Microplate Reader).

Caco-2 cells = test: MTT metabolic activity assay; type: cell-based, human; conditions: Homo sapiens, 24 h post-treatment, 5-Fluorouracil 4µM, read-out: inhibition of proliferation (metabolic activity)
Procedure: (§1) Cells were plated at 2^∗104cells/ml in 96-well plates and incubated overnight. The following day, cells were treated in triplicate with Ceftazdime or 5-fluorouracil for 24-48 h, depending on the cell line used. Metabolic activity of the cells was studied using the MTT assay that measures the ability of metabolically active cells to convert tetrazolium salt into a blue formazan product, the absorbance of which is recorded at 540 nm by an ELISA reader (Bio-Rad iMark Microplate Reader).

RAW 264.7 cells = test: MTT metabolic activity assay on macrophages; type: cell-based, murine; conditions: RAW 264.7
Procedure: as §1

HCT-116 cells [2] = test: Cell cycle distribution, propidium iodide staining; type: cell-based, human; conditions: for percentage of cells in G0/G1 / percentage of cells in G2/M / percentage of cells in Pre G1 / percentage of cells in S: CFT 100 µg/mL, CFP 50 µg/mL, 5-FU 8 µM, alone or combined, mean ± SE
Procedure: Propidium iodide (PI) staining was used to evaluate the effect of the different treatments on the cell cycle. […] Fixed cells, which were washed with PBS and incubated at 37 °C for 1 h with 50 µl RNase (1 mg/ml) (Sigma Aldrich, Germany), were stained for 15 minutes with PI (Molecular Probes, Eugene, Oregon, USA).

DLD-1 cells [3] = test: Cell cycle distribution, propidium iodide staining; type: cell-based, human; conditions: CFT 100 µg/mL, CFP 50 µg/mL, 5-FU 16 µM, alone or combined, mean ± SE
Procedure: Propidium iodide (PI) staining was used to evaluate the effect of the different treatments on the cell cycle. […] 48 h and 72 h post-treatment, collected cells were fixed with ice-cold ethanol (70%) and stored at - 20 °C for at least 2 h. Fixed cells, which were washed with PBS and incubated at 37 °C for 1 h with 50 µl RNase (1 mg/ml) (Sigma Aldrich, Germany), were stained for 15 minutes with PI (Molecular Probes, Eugene, Oregon, USA). Cell cycle was monitored using BD FACSDiva™ and the percentage of cells in the different phases of the cell cycle (pre-Gi, G0/G1, S, and G2/M) phases was determined using BD FACSDiva™ Software.
Propidium iodide (PI) staining was used to evaluate the effect of the different treatments (Ceftazidime (100 µg/ml) or 5-Fluorouracil (16 µM)) on the cell cycle profile of DLD-1 cells. Briefly, DLD-1 cells were plated at 5^∗104/ml and treated for 48 h and 72 h. Collected cells were fixed with ice-cold ethanol (70%) and stored at -20°C for at least 2 h. Fixed cells, which were washed with PBS and incubated at 37°C for 1 h with 50 µl RNase (1 mg/ml) (Sigma Aldrich, Germany), were stained for 15 minutes with PI (Molecular Probes, Eugene, Oregon, USA). Cell cycle was monitored using BD FACSDiva™ and the percentage of cells in the different phases of the cell cycle (pre-Gi, G0/G1, S, and G2/M) phases was determined using BD FACSDiva™ Software.

DLD-1 cells [4] = test: Caspase-3/7 activity assay; type: cell-based, human; conditions: 48 h and 72 h, 5-FU 16 µM, CFT 100 µg/ml
Procedure: (§2) Caspase-3/7 activity was measured 48 h and 72 h post-treatment according to the manufacturer's protocol (Caspase-Glo-3/7 Assay, Promega Corp, Madison, WI, USA). Briefly, equal volume from treated cells and caspase-3/7 mixture were incubated at room temperature for 3 h and the luminescence was measured by a microplate reader.
as §2, with “DLD-1 cells were treated with CFT (100 µg/ml) or 5-Fluorouracil (16 µM). Caspase-3/7” for “Caspase-3/7”, “caspase 3/7” for “caspase-3/7”

HCT-116 cells [5] = test: MTT metabolic activity assay; type: cell-based, human; conditions: for effect of combination with 5-FU on the inhibition of metabolic activity induced by 5-FU (in words): 5-FU 16 µM and 24 µM, MER, AMP, PIP 10, 50, 100 µg/mL, BenP, FLU 5, 25, 50 µg/mL
HCT-116 cells [6] = test: Caspase-3/7 activity assay; type: cell-based, human; conditions: combined with 5-FU 8 µM, 48 and 72h, CFT 100 µg/ml, CFP 50 µg/ml
Procedure: as §2

DLD-1 cells [7] = test: Antibiotics' uptake by the cells, LC-MS/MS; conditions: for Concentration of CFP, Lysate / Concentration of CFP, Supernatant: CFP 50 µg/ml alone or + 5-FU 16 µM
Procedure: (§3) This step was repeated three times and cell homogenate were vortexed at high-speed prior extraction. 40 µl from each supernatant and cell suspension were combined with 200 µl of internal standard working solution prepared in ice-cold methanol. Samples were then centrifuged and 100 µl of the supernatant were diluted with 400 µl water in glass vials prior analysis with LC-/MS/MS.

HCT-116 cells [8] = test: Antibiotics' uptake by the cells, LC-MS/MS; conditions: for Concentration of CFP, Lysate / Concentration of CFP, Supernatant: HCT-116 cells, CFP 50 µg/ml alone or + 5-FU 8 µM
Procedure: as §3

[9] = Stability in media, LC-MS/MS; type: physicochemical; conditions: antibiotic alone (CFP 50 µg/mL, CFT 100 µg/mL)
Procedure: B) CFT (100 µg/ml) ± 5-FU (8 µM and 16 µM). P value (a) (between antibiotic alone and 5-FU (8 µM)); P value (b) (between antibiotic alone and 5-FU (16 µM)), n = 3.

decrease of metabolic activity (RAW 264.7 cells; 24 h of treatment): 80%
metabolic activity of macrophages (in words) (RAW 264.7 cells; 48 h post-treatment): sustained up to 48 h
Structure (SMILES): O=c1[nH]cc(F)c(=O)[nH]1 [5-FU, 5-fluorouracil]
inhibitory effect vs. control untreated cells (metabolic activity) (DLD-1 cells [1]): 18%
inhibition at 4 µM (Caco-2 cells): 22%
increase in the percentage of cells in the pre-G1 phase vs. control (HCT-116 cells [2]; 48 h): 3 fold
percentage of cells in G0/G1 (HCT-116 cells [2]; 48 h): 48.4 ± 2.3^(a) %
percentage of cells in G2/M (HCT-116 cells [2]; 48 h): 22.3 ± 2.9%
percentage of cells in Pre G1 (HCT-116 cells [2]; 48 h): 16.9 ± 2.5^(a) %
percentage of cells in S (HCT-116 cells [2]; 48 h): 10.6 ± 1.0%
increase in the percentage of cells in the pre-G1 phase vs. control (HCT-116 cells [2]; 72 h): 8.2 fold
percentage of cells in G0/G1 (HCT-116 cells [2]; 72 h): 39.0 ± 9.5^(a) %
percentage of cells in G2/M (HCT-116 cells [2]; 72 h): 16.4 ± 2.4^(a) %
percentage of cells in Pre G1 (HCT-116 cells [2]; 72 h): 36.7 ± 11.7^(a) %
percentage of cells in S (HCT-116 cells [2]; 72 h): 6.6 ± 0.7%
percentage of cells in G0/G1 (DLD-1 cells [3]; 48 h): 49.3 ± 4.4%
percentage of cells in G2/M (DLD-1 cells [3]; 48 h): 10.3 ± 1.7^(a) %
percentage of cells in Pre G1 (DLD-1 cells [3]; 48 h): 6.3 ± 2.3%
percentage of cells in S (DLD-1 cells [3]; 48 h): 32.0 ± 6.1^(a) %
percentage of cells in G0/G1 (DLD-1 cells [3]; 72 h): 69.4 ± 5.0%
percentage of cells in G2/M (DLD-1 cells [3]; 72 h): 5.4 ± 2.7^(a) %
percentage of cells in Pre G1 (DLD-1 cells [3]; 72 h): 4.7 ± 0.3%
percentage of cells in S (DLD-1 cells [3]; 72 h): 20.1 ± 2.9^(a) %
caspase 3/7 activity / apoptosis induction (in words) (DLD-1 cells [4]): did not induce caspase 3/7 activity

Structure (SMILES): CC1(C)S[C@@H]2[C@H](NC(=O)[C@H](N)c3ccccc3)C(=O)N2[C@H]1C(=O)O [AMP, ampicillin]
effect of combination with 5-FU on the inhibition of metabolic activity induced by 5-FU (in words) (HCT-116 cells [5]): does not affect the inhibition

Structure (SMILES): CC1(C)S[C@@H]2[C@H](NC(=O)Cc3ccccc3)C(=O)N2[C@H]1C(=O)O [BenP, benzylpenicillin]
effect of combination with 5-FU on the inhibition of metabolic activity induced by 5-FU (in words) (HCT-116 cells [5]): does not affect the inhibition

Structure (SMILES): CO/N=C(\C(=O)N[C@@H]1C(=O)N2C(C(=O)[O-])=C(C[N+]3(C)CCCC3)CS[C@H]12)c1csc(N)n1 [CFP, cefepime]
effect on 5-FU's effect on metabolic activity (in words) (HCT-116 cells [5]; 48 h post-treatment, CFT 100 µg/mL, CFP 50 µg/mL combined with 5-FU): antagonized 5-FU's effect
percentage of cells in G0/G1 (HCT-116 cells [2]; 48 h): 51.7 ± 2.8%
percentage of cells in G2/M (HCT-116 cells [2]; 48 h): 24.6 ± 0.9%
percentage of cells in Pre G1 (HCT-116 cells [2]; 48 h): 4.9 ± 1.6%
percentage of cells in S (HCT-116 cells [2]; 48 h): 13.6 ± 1.6%
percentage of cells in G0/G1 (HCT-116 cells [2]; 72 h): 53.8 ± 3.6^(a) %
percentage of cells in G2/M (HCT-116 cells [2]; 72 h): 23.6 ± 2.2^(a) %
percentage of cells in Pre G1 (HCT-116 cells [2]; 72 h): 9.8% and 9.3 ± 2.9^(a) %
percentage of cells in S (HCT-116 cells [2]; 72 h): 7.4 ± 1.4%
percentage of cells in G0/G1 (DLD-1 cells [3]; 48 h): 48.8 ± 4.0%
percentage of cells in G2/M (DLD-1 cells [3]; 48 h): 18.4 ± 4.3%
percentage of cells in Pre G1 (DLD-1 cells [3]; 48 h): 2.6 ± 0.3%
percentage of cells in S (DLD-1 cells [3]; 48 h): 29.2 ± 8.1%
percentage of cells in G0/G1 (DLD-1 cells [3]; 72 h): 59.6 ± 3.6^(a) %
percentage of cells in G2/M (DLD-1 cells [3]; 72 h): 17.0 ± 3.5%
percentage of cells in Pre G1 (DLD-1 cells [3]; 72 h): 9.5 ± 4.1^(a) %
percentage of cells in S (DLD-1 cells [3]; 72 h): 13.1 ± 3.3^(a) %
effect on 5-FU-induced apoptosis (caspase 3/7, in words) (HCT-116 cells [6]): effect was seen only 72h post-treatment
Concentration of CFP, Lysate (DLD-1 cells [7]; 2 h): 0.012 ± 0.005
Concentration of CFP, Supernatant (DLD-1 cells [7]; 2 h): 50.000 ± 1.697
Concentration of CFP, Lysate (DLD-1 cells [7]; 4 h): 0.010 ± 0.0002
Concentration of CFP, Supernatant (DLD-1 cells [7]; 4 h): 54.187 ± 0.849
Concentration of CFP, Lysate (DLD-1 cells [7]; 6 h): 0.014 ± 0.0001
Concentration of CFP, Supernatant (DLD-1 cells [7]; 6 h): 45.813 ± 3.818
Concentration of CFP, Lysate (DLD-1 cells [7]; 8 h): 0.012 ± 0.001
Concentration of CFP, Supernatant (DLD-1 cells [7]; 8 h): 47.947 ± 12.644
average uptake by the cells (DLD-1 cells [7]; up to 8h): around 0.02%
Concentration of CFP, Lysate (HCT-116 cells [8]; 2 h): 0.018 ± 0.004
Concentration of CFP, Supernatant (HCT-116 cells [8]; 2 h): 44.1 and 44.100 ± 3.395
Concentration of CFP, Lysate (HCT-116 cells [8]; 4 h): 0.022 ± 0.005
Concentration of CFP, Supernatant (HCT-116 cells [8]; 4 h): 34.500 ± 3.818
Concentration of CFP, Lysate (HCT-116 cells [8]; 6 h): 0.050 ± 0.003
Concentration of CFP, Supernatant (HCT-116 cells [8]; 6 h): 35.250 ± 1.485
Concentration of CFP, Lysate (HCT-116 cells [8]; 8 h): 0.032 ± 0.002
Concentration of CFP, Supernatant (HCT-116 cells [8]; 8 h): 35.9 and 35.850 ± 1.909
average uptake in HCT-116 cells compared to DLD-1 cells (HCT-116 cells [8]; up to 8h): 2 folds
Stability test, level in media ([9]; 2h in media): 49.9 ± 9.5
Stability test, level in media ([9]; 8h in media): 48.8 ± 5.3

Structure (SMILES): Cc1onc(-c2c(F)cccc2Cl)c1C(=O)N[C@@H]1C(=O)N2[C@@H]1SC(C)(C)[C@@H]2C(=O)O [FLU, flucloxacillin]
effect of combination with 5-FU on the inhibition of metabolic activity induced by 5-FU (in words) (HCT-116 cells [5]): does not affect the inhibition

Structure (SMILES): C[C@@H](O)[C@H]1C(=O)N2C(C(=O)O)=C(S[C@@H]3CN[C@H](C(=O)N(C)C)C3)[C@H](C)[C@H]12 [MER, meropenem]
effect of combination with 5-FU on the inhibition of metabolic activity induced by 5-FU (in words) (HCT-116 cells [5]): does not affect the inhibition

Structure (SMILES): CCN1CCN(C(=O)N[C@@H](C(=O)N[C@@H]2C(=O)N3[C@@H]2SC(C)(C)[C@@H]3C(=O)O)c2ccccc2)C(=O)C1=O [PIP, piperacillin]
effect of combination with 5-FU on the inhibition of metabolic activity induced by 5-FU (in words) (HCT-116 cells [5]): does not affect the inhibition

Source: patent EP4108244A1, “SS-LACTAM ANTIBIOTIC WITH SIGNIFICANT ACTIVITY AGAINST CANCER E.G. COLON MALIGNANCIES” (priority 2021, dated 2022)
